Results: patent US20030186434A1, “Method of forming vertebrate pancreas in vitro” (priority 2002, published 2003)

Tested on: blastopore upper lip of early gastrula of a Xenopus
Assay: Tissue differentiation of blastopore upper lip cultured continuously in retinoic acid solution for 10 days
Type: cell-based
Conditions: for Atypical epidermis differentiated, specimens (%) / Cartilage differentiated, specimens (%) / Cement gland differentiated, specimens (%) / Coelomic epithelium differentiated, specimens (%) / Ear vesicle differentiated, specimens (%) / Epidermis differentiated, specimens (%) / Eye or its fragments differentiated, specimens (%) / Gastric gland differentiated, specimens (%) / Hemocyte differentiated, specimens (%) / Intestinal epithelium differentiated, specimens (%) / Mesenchyme differentiated, specimens (%) / Muscle differentiated, specimens (%) / Neural tissue differentiated, specimens (%) / Notochord differentiated, specimens (%) / Pancreas differentiated, specimens (%) / Pharyngeal epithelium differentiated, specimens (%) / Pronephros differentiated, specimens (%) / Yolk-rich cell differentiated, specimens (%): continuous 10 days

Structure (SMILES): CC1=C(/C=C/C(C)=C/C=C/C(C)=C/C(=O)O)C(C)(C)CCC1 [Retinoic acid, retinoic acid]
- survival of explants while being cultured (10^−4 M, continuous treatment): all the explants died
- Atypical epidermis differentiated, specimens (%) (10^−5 M, 17 specimens): 0 (0)
- Cartilage differentiated, specimens (%) (10^−5 M, 17 specimens): 0 (0)
- Cement gland differentiated, specimens (%) (10^−5 M, 17 specimens): 0 (0)
- Coelomic epithelium differentiated, specimens (%) (10^−5 M, 17 specimens): 2 (12)
- Ear vesicle differentiated, specimens (%) (10^−5 M, 17 specimens): 0 (0)
- Epidermis differentiated, specimens (%) (10^−5 M, 17 specimens): 7 (41)
- Eye or its fragments differentiated, specimens (%) (10^−5 M, 17 specimens): 0 (0)
- Gastric gland differentiated, specimens (%) (10^−5 M, 17 specimens): 0 (0)
- Hemocyte differentiated, specimens (%) (10^−5 M, 17 specimens): 0 (0)
- Intestinal epithelium differentiated, specimens (%) (10^−5 M, 17 specimens): 8 (47)
- Mesenchyme differentiated, specimens (%) (10^−5 M, 17 specimens): 8 (47)
- Muscle differentiated, specimens (%) (10^−5 M, 17 specimens): 0 (0)
- Neural tissue differentiated, specimens (%) (10^−5 M, 17 specimens): 0 (0)
- Notochord differentiated, specimens (%) (10^−5 M, 17 specimens): 14 (82)
- Pancreas differentiated, specimens (%) (10^−5 M, 17 specimens): 2 (12)
- Pharyngeal epithelium differentiated, specimens (%) (10^−5 M, 17 specimens): 5 (29)
- Pronephros differentiated, specimens (%) (10^−5 M, 17 specimens): 0 (0)
- Yolk-rich cell differentiated, specimens (%) (10^−5 M, 17 specimens): 15 (88)
- Atypical epidermis differentiated, specimens (%) (10^−6 M, 16 specimens): 0 (0)
- Cartilage differentiated, specimens (%) (10^−6 M, 16 specimens): 0 (0)
- Cement gland differentiated, specimens (%) (10^−6 M, 16 specimens): 0 (0)
- Coelomic epithelium differentiated, specimens (%) (10^−6 M, 16 specimens): 2 (13)
- Ear vesicle differentiated, specimens (%) (10^−6 M, 16 specimens): 0 (0)
- Epidermis differentiated, specimens (%) (10^−6 M, 16 specimens): 1 (6)
- Eye or its fragments differentiated, specimens (%) (10^−6 M, 16 specimens): 0 (0)
- Gastric gland differentiated, specimens (%) (10^−6 M, 16 specimens): 2 (13)
- Hemocyte differentiated, specimens (%) (10^−6 M, 16 specimens): 0 (0)
- Intestinal epithelium differentiated, specimens (%) (10^−6 M, 16 specimens): 14 (88)
- Mesenchyme differentiated, specimens (%) (10^−6 M, 16 specimens): 13 (81)
- Muscle differentiated, specimens (%) (10^−6 M, 16 specimens): 3 (19)
- Neural tissue differentiated, specimens (%) (10^−6 M, 16 specimens): 0 (0)
- Notochord differentiated, specimens (%) (10^−6 M, 16 specimens): 14 (88)
- Pancreas differentiated, specimens (%) (10^−6 M, 16 specimens): 1 (6)
- Pharyngeal epithelium differentiated, specimens (%) (10^−6 M, 16 specimens): 3 (19)
- Pronephros differentiated, specimens (%) (10^−6 M, 16 specimens): 0 (0)
- Yolk-rich cell differentiated, specimens (%) (10^−6 M, 16 specimens): 14 (88)
- Atypical epidermis differentiated, specimens (%) (10^−7 M, 15 specimens): 0 (0)
- Cartilage differentiated, specimens (%) (10^−7 M, 15 specimens): 0 (0)
- Cement gland differentiated, specimens (%) (10^−7 M, 15 specimens): 0 (0)
- Coelomic epithelium differentiated, specimens (%) (10^−7 M, 15 specimens): 9 (60)
- Ear vesicle differentiated, specimens (%) (10^−7 M, 15 specimens): 0 (0)
- Epidermis differentiated, specimens (%) (10^−7 M, 15 specimens): 8 (53)
- Eye or its fragments differentiated, specimens (%) (10^−7 M, 15 specimens): 0 (0)
- Gastric gland differentiated, specimens (%) (10^−7 M, 15 specimens): 3 (20)
- Hemocyte differentiated, specimens (%) (10^−7 M, 15 specimens): 0 (0)
- Intestinal epithelium differentiated, specimens (%) (10^−7 M, 15 specimens): 5 (33)
- Mesenchyme differentiated, specimens (%) (10^−7 M, 15 specimens): 9 (60)
- Muscle differentiated, specimens (%) (10^−7 M, 15 specimens): 4 (27)
- Neural tissue differentiated, specimens (%) (10^−7 M, 15 specimens): 2 (13)
- Notochord differentiated, specimens (%) (10^−7 M, 15 specimens): 14 (93)
- Pancreas differentiated, specimens (%) (10^−7 M, 15 specimens): 1 (7)
- Pharyngeal epithelium differentiated, specimens (%) (10^−7 M, 15 specimens): 9 (60)
- Pronephros differentiated, specimens (%) (10^−7 M, 15 specimens): 1 (7)
- Yolk-rich cell differentiated, specimens (%) (10^−7 M, 15 specimens): 13 (87)
- Atypical epidermis differentiated, specimens (%) (10^−8 M, 20 specimens): 0 (0)
- Cartilage differentiated, specimens (%) (10^−8 M, 20 specimens): 9 (45)
- Cement gland differentiated, specimens (%) (10^−8 M, 20 specimens): 0 (0)
- Coelomic epithelium differentiated, specimens (%) (10^−8 M, 20 specimens): 6 (30)
- Ear vesicle differentiated, specimens (%) (10^−8 M, 20 specimens): 0 (0)
- Epidermis differentiated, specimens (%) (10^−8 M, 20 specimens): 19 (95)
- Eye or its fragments differentiated, specimens (%) (10^−8 M, 20 specimens): 0 (0)
- Gastric gland differentiated, specimens (%) (10^−8 M, 20 specimens): 0 (0)
- Hemocyte differentiated, specimens (%) (10^−8 M, 20 specimens): 0 (0)
- Intestinal epithelium differentiated, specimens (%) (10^−8 M, 20 specimens): 2 (10)
- Mesenchyme differentiated, specimens (%) (10^−8 M, 20 specimens): 19 (95)
- Muscle differentiated, specimens (%) (10^−8 M, 20 specimens): 12 (60)
- Neural tissue differentiated, specimens (%) (10^−8 M, 20 specimens): 7 (35)
- Notochord differentiated, specimens (%) (10^−8 M, 20 specimens): 17 (85)
- Pancreas differentiated, specimens (%) (10^−8 M, 20 specimens): 1 (5)
- Pharyngeal epithelium differentiated, specimens (%) (10^−8 M, 20 specimens): 12 (60)
- Pronephros differentiated, specimens (%) (10^−8 M, 20 specimens): 0 (0)
- Yolk-rich cell differentiated, specimens (%) (10^−8 M, 20 specimens): 9 (45)
- Atypical epidermis differentiated, specimens (%) (10^−9 M, 11 specimens): 0 (0)
- Cartilage differentiated, specimens (%) (10^−9 M, 11 specimens): 5 (45)
- Cement gland differentiated, specimens (%) (10^−9 M, 11 specimens): 0 (0)
- Coelomic epithelium differentiated, specimens (%) (10^−9 M, 11 specimens): 5 (45)
- Ear vesicle differentiated, specimens (%) (10^−9 M, 11 specimens): 0 (0)
- Epidermis differentiated, specimens (%) (10^−9 M, 11 specimens): 11 (100)
- Eye or its fragments differentiated, specimens (%) (10^−9 M, 11 specimens): 0 (0)
- Gastric gland differentiated, specimens (%) (10^−9 M, 11 specimens): 0 (0)
- Hemocyte differentiated, specimens (%) (10^−9 M, 11 specimens): 0 (0)
- Intestinal epithelium differentiated, specimens (%) (10^−9 M, 11 specimens): 0 (0)
- Mesenchyme differentiated, specimens (%) (10^−9 M, 11 specimens): 10 (91)
- Muscle differentiated, specimens (%) (10^−9 M, 11 specimens): 9 (82)
- Neural tissue differentiated, specimens (%) (10^−9 M, 11 specimens): 9 (82)
- Notochord differentiated, specimens (%) (10^−9 M, 11 specimens): 11 (100)
- Pancreas differentiated, specimens (%) (10^−9 M, 11 specimens): 0 (0)
- Pharyngeal epithelium differentiated, specimens (%) (10^−9 M, 11 specimens): 7 (64)
- Pronephros differentiated, specimens (%) (10^−9 M, 11 specimens): 0 (0)
- Yolk-rich cell differentiated, specimens (%) (10^−9 M, 11 specimens): 8 (73)
- formation rate of pancreas (continuous treatment 10 days, any concentration tested): about 10%
